The results in this text go back to ChEMBL document CHEMBL1201862, “PubChem BioAssay data set” (2004).

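How tested: cells in 96-well plates exposed to compound for 48 hours at five concentrations. At the GI50, growth is halved.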 Calls of active or inactive are those of the source. No stated cut-off is given here; in the data, active = GI50 up to about 1.1 µM and inactive = higher.

Among the test systems are KM-20L2; DMS-273; RXF 631; XF498; DMS-114; SNB-78; LXFL 529; HOP-18; DLD-1.
Common to all, as to assay: inhibition of tumour cell growth, NCI panel, 48 h

For the molecule `CN/N=C(\C)C(CN1CCCCC1)C(C1=C(O)c2ccccc2OC1)c1ccccc1` (stereo not drawn), the GI50 was > 100 µM (inactive) with KM-20L2; > 100 µM (inactive) in the assay with DMS-273; > 100 µM (inactive) in the assay on RXF 631; > 100 µM (inactive) with XF498; 79.3 µM (inactive) with DMS-114; > 100 µM (inactive) in the assay with SNB-78. In addition, the GI50 in the assay on LXFL 529 was > 100 µM (inactive).

For the molecule `CC1CCP(=O)(c2ccccc2)c2ccccc21` (stereo not drawn), the GI50 with HOP-18 is > 100 µM (inactive); in the assay on DLD-1, 46.8 µM (inactive); in the assay on KM-20L2 it was > 100 µM (inactive); in the assay with DMS-273, 28.2 µM (inactive); in the assay with XF498, < 0.01 µM (active); in the assay with DMS-114, 38.4 µM (inactive). The GI50 with SNB-78 was > 100 µM (inactive); in the assay with LXFL 529, 43.6 µM (inactive).

`COC(=O)C1=C(C(=O)OC)SC(=CC#CC=C2SC(C(=O)OC)=C(C(=O)OC)S2)S1`: the GI50 with HOP-18 was 8.87 µM (inactive); with DLD-1, 14.1 µM (inactive); in the assay with KM-20L2, 11.9 µM (inactive); in the assay on DMS-273 it was 10.5 µM (inactive); with XF498 it was 4.53 µM (inactive); with DMS-114, 35.2 µM (inactive). The GI50 is 12.2 µM (inactive) with SNB-78 and 14.3 µM (inactive) in the assay on LXFL 529.

Regarding `CNC(=O)CN(CC(=O)NC)C(=O)NC`, the GI50 in the assay with DLD-1, in the assay on KM-20L2, in the assay on DMS-273, in the assay on XF498, in the assay on SNB-78 and in the assay with LXFL 529 was > 100 µM (inactive) each time.

With `Cc1cc2c(cc1Br)C1(C)CCC(C)C1(C)O2` (stereo not drawn), the GI50 in the assay on HOP-18 was 30.1 µM (inactive); with DLD-1, 48.8 µM (inactive); with KM-20L2 it was 32.3 µM (inactive); with DMS-273 it was 19.6 µM (inactive); with XF498, 22.5 µM (inactive); with DMS-114, 22 µM (inactive). Moreover, the GI50 was 24 µM (inactive) with SNB-78 and 57.7 µM (inactive) in the assay with LXFL 529.

`O=C1c2ccoc2C(=O)c2oc(=O)ccc21`: the GI50 in the assay on HOP-18 is 21.6 µM (inactive); in the assay with DLD-1 it was 18.7 µM (inactive); in the assay on KM-20L2 it was > 46.1 µM (inactive); with DMS-273, 16.8 µM (inactive); in the assay with XF498 it was 25.3 µM (inactive); in the assay with DMS-114, 2.05 µM (inactive). In addition, the GI50 with SNB-78 is 12.2 µM (inactive); in the assay with LXFL 529 it was 6.75 µM (inactive).

For the molecule `CC(C)(Oc1ccc(/C=C/C(=O)c2ccc(Cl)cc2)cc1)C(=O)Nc1c(Cl)cccc1Cl`, the GI50 is 80.4 µM (inactive) with HOP-18; 13.7 µM (inactive) in the assay with DLD-1; 20.3 µM (inactive) with KM-20L2; 19.5 µM (inactive) in the assay on RXF 631; 17.7 µM (inactive) with XF498; 11.6 µM (inactive) in the assay with DMS-114. The GI50 in the assay with LXFL 529 is 13.9 µM (inactive).

For `N#CC1(C#N)C2(c3ccccc3)OC(c3ccccc3)(c3cc4ccccc4cc32)C1(C#N)C#N`, the GI50 with HOP-18 was 3.47 µM (inactive); in the assay with DLD-1 it was 8.73 µM (inactive); in the assay with KM-20L2, 13.3 µM (inactive); in the assay with DMS-273 it was 16.3 µM (inactive); in the assay on DMS-114, 7.89 µM (inactive); in the assay with LXFL 529, 1.62 µM (inactive).

As to `CN1C(=O)n2c(nc3ccccc32)C(N=[N+]=[N-])(N=[N+]=[N-])C1=O` (stereo not drawn), the GI50 with HOP-18, in the assay with DLD-1, with KM-20L2, with DMS-273, in the assay on RXF 631 and with XF498 was > 100 µM (inactive) each time. Besides, the GI50 with DMS-114, with SNB-78 and with LXFL 529 was > 100 µM (inactive) throughout.

As for `CC1(C)c2ccccc2N2O[C@@H]3C(=O)N(c4ccccc4)C(=O)[C@@H]3C21c1ccccc1` (stereo partly drawn), the GI50 with DLD-1, in the assay with DMS-273, in the assay on XF498, in the assay with DMS-114, with SNB-78 and in the assay on LXFL 529 was > 100 µM (inactive) in each case.

On to `CC(C)C(=O)NS(=O)(=O)c1ccccc1`, for which the GI50 in the assay on HOP-18, in the assay with DLD-1, with KM-20L2, in the assay on RXF 631, in the assay on XF498 and in the assay with DMS-114 was > 100 µM (inactive) throughout. Besides, the GI50 in the assay with SNB-78 and in the assay with LXFL 529 was > 100 µM (inactive) in each case.

For the molecule `CCCCCCC(=O)C/C(CCC(=O)N(Cc1ccccc1)Cc1ccccc1)=N\Nc1ccc([N+](=O)[O-])cc1[N+](=O)[O-]`, the GI50 with HOP-18 is 55.1 µM (inactive); with DLD-1, 42 µM (inactive); in the assay on KM-20L2, 56.8 µM (inactive); in the assay with DMS-273, 55.8 µM (inactive); in the assay on DMS-114, 17 µM (inactive); in the assay on SNB-78, > 100 µM (inactive). Also, in the assay with LXFL 529, the GI50 is 31 µM (inactive).

As to `N#C/N=C(/NCCc1c[nH]c2ccccc12)Oc1ccccc1`, the GI50 in the assay on DLD-1 was > 100 µM (inactive); in the assay on KM-20L2, 22.5 µM (inactive); with DMS-273, > 100 µM (inactive); in the assay with XF498, 21.1 µM (inactive); in the assay with DMS-114 it was 40.9 µM (inactive); in the assay with SNB-78, 98.9 µM (inactive). Moreover, the GI50 in the assay with LXFL 529 was 72.8 µM (inactive).

For `COC(=O)c1cc(O)ccc1NC(=O)c1ccc(O)cc1`, the GI50 with HOP-18, in the assay on DLD-1, in the assay on KM-20L2, with RXF 631, in the assay with XF498 and with DMS-114 was > 100 µM (inactive) in each case. For the same molecule, the GI50 in the assay with SNB-78 and with LXFL 529 was > 100 µM (inactive) throughout.

Turning to `COc1c2nc(CCl)[nH]c(=O)c2c(OC)c2nc(CCl)[nH]c(=O)c12`, the GI50 with HOP-18, in the assay on DLD-1, in the assay with KM-20L2, in the assay with DMS-273, with XF498 and in the assay with DMS-114 was > 100 µM (inactive) each time. The GI50 with SNB-78 and in the assay with LXFL 529 was > 100 µM (inactive) each time.

Consider `COc1ccc2c3c(coc13)C(CCC(=O)O)CC2` (stereo not drawn), for which the GI50 in the assay on HOP-18 is 88.5 µM (inactive); with DLD-1, > 100 µM (inactive); with KM-20L2, > 100 µM (inactive); with DMS-273 it was > 100 µM (inactive); in the assay on RXF 631 it was > 100 µM (inactive); with XF498 it was 48.3 µM (inactive). In addition, the GI50 in the assay on DMS-114, in the assay with SNB-78 and in the assay on LXFL 529 was > 100 µM (inactive) in each case.

In the case of `CCOC1c2nc3ccccc3nc2-c2ccccc2N1C(C)=O` (stereo not drawn), the GI50 with HOP-18 was 51.6 µM (inactive); in the assay on DLD-1, > 100 µM (inactive); in the assay on KM-20L2 it was > 100 µM (inactive); in the assay with DMS-273, 93.3 µM (inactive); with RXF 631, 74.5 µM (inactive); in the assay on XF498 it was > 100 µM (inactive). The GI50 is > 100 µM (inactive) with DMS-114, > 100 µM (inactive) with SNB-78 and 70.6 µM (inactive) in the assay on LXFL 529.

Consider `CC(C)c1cccc(C(C)C)c1NC(=S)NN=C1C=C(C(C)(C)C)C(=O)C(C(C)(C)C)=C1`, for which the GI50 is 36.4 µM (inactive) in the assay on DLD-1; 24.2 µM (inactive) in the assay with KM-20L2; 29.9 µM (inactive) in the assay on DMS-273; 9.95 µM (inactive) in the assay on RXF 631; 22.8 µM (inactive) in the assay on XF498; 7.26 µM (inactive) in the assay with DMS-114. Further, the GI50 with LXFL 529 was 32.3 µM (inactive).

As to `COc1cc(Cn2c(=S)ss/c2=N\C(=S)N(C)C)cc(OC)c1OC`, the GI50 is > 92 µM (inactive) in the assay with HOP-18; 6.31 µM (inactive) in the assay on DLD-1; 4.68 µM (inactive) in the assay on KM-20L2; 4.41 µM (inactive) with DMS-273; 4.25 µM (inactive) with RXF 631; 2.93 µM (inactive) in the assay with DMS-114. Moreover, the GI50 was > 100 µM (inactive) with SNB-78 and 6.37 µM (inactive) with LXFL 529.

As for `CCC12C=CCN3CC[C@]4(C(=C(C(=O)OC)[C@@H]1Nc1ccn(C5OC(COC(C)=O)C(OC(C)=O)C5OC(C)=O)c(=O)n1)Nc1ccccc14)C32` (stereo partly drawn), the GI50 is 6.92 µM (inactive) in the assay with HOP-18; 4.53 µM (inactive) in the assay with DLD-1; 4.66 µM (inactive) in the assay on KM-20L2; 4.28 µM (inactive) in the assay with DMS-273; 5.74 µM (inactive) in the assay with XF498; 5.42 µM (inactive) in the assay on SNB-78. The GI50 with LXFL 529 was 4.42 µM (inactive).

Regarding `COc1cc2c(cc1OC)-c1cc3cc(OC)c(OC)cc3n1CC2`, the GI50 is 58.2 µM (inactive) with DLD-1; 21.6 µM (inactive) with KM-20L2; 18.9 µM (inactive) with XF498; 72.3 µM (inactive) in the assay on DMS-114; 36.8 µM (inactive) in the assay with SNB-78; 54.8 µM (inactive) with LXFL 529.

As to `Nc1n[n+]([O-])c2ccccc2[n+]1[O-]` [TIRAPAZAMINE], the GI50 with DMS-273 was 52.2 µM (inactive); with RXF 631 it was > 100 µM (inactive); with XF498 it was 44.4 µM (inactive); in the assay with DMS-114, 44.4 µM (inactive); in the assay on SNB-78, > 100 µM (inactive); in the assay on LXFL 529, > 100 µM (inactive).
